US9637529B2, “Medicament for atrophy treatment or increasing cell growth” (SIMU TRADE CONSULTING GMBH & CO. LEASING KG, priority 2012, dated 2017)
Entries after “also recorded” stand apart in the source; their conditions may differ.

Key:
[1] = system: human epithelial cell line (MCF-7); test: H2O2-induced apoptosis, trypan-blue staining, MCF-7; format: cell-based; conditions: 200 mM H2O2, SERF2 5 μg/ml, 6 hours, serum-free
Experimental: Experiments were performed in 6-well plates containing 5 ml cell culture medium (serum-free) per well and were seeded at a cell density of 1*10^6 cells/well and cultured overnight. On the next day 200 mM H2O2 or 200 mM H2O2 and SERF2 (5 μg/ml) was added to cultures. After 6 hours of incubation, the adherent cells were harvested, washed 3 times in PBS and dead cells were detected by trypan-blue staining using light microscopy. Shown is the percentage of dead cells.
Trypan Blue staining is one of the most commonly used methods to determine the cell viability using light microscopy. Trypan blue can only stain cells if their membrane is damaged.
The question was asked whether SERF2 has an effect on growth factor deprivation- or stress-induced apoptosis. The experimental protocol included addition of Hydrogen peroxide (H2O2), which is known to cause cellular stress and consequently apoptotic death in doses below 200 μM (Cox A., Carcinogenesis. 2007, Vol. 28, 10). Furthermore apoptosis was induced by deprivation of granulocyte macrophage colony-stimulating factor (GM-CSF) in cultures of TF-1 cells. These cells are dependent on the presence of a growth factor which is absolutely necessary for growth and differentiation of TF-1 cells.

TF-1 cells = test: Growth factor deprivation apoptosis, caspase-3 ELISA, TF-1; format: cell-based, human; conditions: serum-free medium with or without GM-CSF, SERF2 5 μg/ml, 9.5 hours
Experimental: TF-1 cells were incubated under different culture conditions: FCS+GM-CSF (dark blue), serum-free medium+GM-CSF (5 μg/ml; pale blue), serum-free medium+GM-CSF+SERF2 (5 μg/ml; lime), serum-free medium+SERF2 (green) and serum-free medium only (red). After 9.5 hours culture supernatants were analyzed by an ELISA-technique for caspase-3 expression levels. Results are expressed as pNA in pmol/μl
(§1) Caspase-3 is a member of the cysteine aspartic acid-specific protease family and is a marker of an early event in apoptosis. Caspase-3 expression was measured using a commercially available kit. Briefly, culture supernatants of cells undergoing apoptosis after different treatments were harvested and incubated with a substrate labeled with p-nitroaniline (pNA), which produces a yellow color when it is cleaved by caspase-3. The amount of produced yellow color is proportional to the caspase-3 activity, which can be determined by an ELISA reader at 405 nm (Promega). The assay was performed essentially as described by the manufacturer (instruction manual of CaspACE™ Assay System, Promega).
(§2) The question was asked whether SERF2 has an effect on growth factor deprivation- or stress-induced apoptosis. The experimental protocol included addition of Hydrogen peroxide (H2O2), which is known to cause cellular stress and consequently apoptotic death in doses below 200 μM (Cox A., Carcinogenesis. 2007, Vol. 28, 10). […]

711-3 cells = test: H2O2-induced apoptosis, caspase-3 ELISA, 711-3; format: cell-based, human; conditions: serum-free medium with or without H2O2, SERF2 5 μg/ml, 9.5 hours
Experimental: 711-3 cells were incubated under different culture conditions: serum-free medium (dark blue), serum-free medium+SERF2 (5 μg/ml; lime) serum-free medium+SERF2+H2O2 (green) and serum-free medium+H2O2 (red). After 9.5 hours culture supernatants were analyzed by an ELISA-technique for caspase-3 expression levels. Results are expressed as pNA in pmol/μl.
as §1, §2

zebrafish = test: Zebrafish blood cell concentration; format: in vivo
Experimental: FIG. 14: Changes in blood cell concentrations in zebrafish incubated in different doses of SERF2. Shown are mean values (blood cells/nl) and SEM. Asterisks indicate significant differences to control animals.
FIG. 17: Detection of blood cells (green arrows) in 7 dpf zebrafish (top image=control, lower image=SERF2-treated). To determine blood cell concentration the number of detected cells were divided by vessel volume.
SERF2 was administered by a) injection of the native protein into the yolk sac of 3 day post fertilization (dpf) animals and freshly fertilized eggs (2-8 cell stage) in various protein concentrations or chronic incubation with the native protein to supply it via diffusion. For in deep analysis of angiogenic effects flk-1 transgenic animals with gfp (green fluorescent protein) labelled endothelium were used. For all other experiments wildtype (wdt) animals were used.
A cast of the vascular bed was obtained by accumulation of the shifting vectors of moving erythrocytes from a number of subsequent difference pictures, as described previously (by Schwerte et al., supra). In parallel to this flk-1 transgenic animals, which show green fluorescing endothelium, were imaged.

SERF2: Small EDRK-rich factor 2, mature protein of 59 amino acids (SEQ ID NO: 1) (MTRGNQRELARQKNMKKQSDSVKGKRRDDGLSAAARKQRDSEIMQQKQKKANEKKEEPK; homo sapiens)
protection from H2O2-induced apoptosis (percentage of dead cells), MCF-7 [1]: markedly reduced apoptosis; also recorded: protects a human epithelial cell line (MCF-7) from H2O2-induced apoptosis | apoptosis (caspase-3 levels) in TF-1 cells (TF-1 cells): markedly reduced apoptosis; also recorded: compensates for FCS and alleviates apoptosis | apoptosis (caspase-3 levels) in 711-3 cells (711-3 cells): markedly reduced apoptosis; also recorded: alleviates apoptosis | blood cell concentrations by treatment group (zebrafish; 7 dpf, incubation and injection routes): all but one treatment group show significantly increased blood cell concentrations | increase in blood cell concentration compared to controls (zebrafish; zebrafish, different doses of SERF2): 50 to 100%
